By IC50 is commonly meant the concentration needed to halve the response being measured. Read a high IC50 as weaker potency.

T1 sequence (O00370 whole entry, looked up): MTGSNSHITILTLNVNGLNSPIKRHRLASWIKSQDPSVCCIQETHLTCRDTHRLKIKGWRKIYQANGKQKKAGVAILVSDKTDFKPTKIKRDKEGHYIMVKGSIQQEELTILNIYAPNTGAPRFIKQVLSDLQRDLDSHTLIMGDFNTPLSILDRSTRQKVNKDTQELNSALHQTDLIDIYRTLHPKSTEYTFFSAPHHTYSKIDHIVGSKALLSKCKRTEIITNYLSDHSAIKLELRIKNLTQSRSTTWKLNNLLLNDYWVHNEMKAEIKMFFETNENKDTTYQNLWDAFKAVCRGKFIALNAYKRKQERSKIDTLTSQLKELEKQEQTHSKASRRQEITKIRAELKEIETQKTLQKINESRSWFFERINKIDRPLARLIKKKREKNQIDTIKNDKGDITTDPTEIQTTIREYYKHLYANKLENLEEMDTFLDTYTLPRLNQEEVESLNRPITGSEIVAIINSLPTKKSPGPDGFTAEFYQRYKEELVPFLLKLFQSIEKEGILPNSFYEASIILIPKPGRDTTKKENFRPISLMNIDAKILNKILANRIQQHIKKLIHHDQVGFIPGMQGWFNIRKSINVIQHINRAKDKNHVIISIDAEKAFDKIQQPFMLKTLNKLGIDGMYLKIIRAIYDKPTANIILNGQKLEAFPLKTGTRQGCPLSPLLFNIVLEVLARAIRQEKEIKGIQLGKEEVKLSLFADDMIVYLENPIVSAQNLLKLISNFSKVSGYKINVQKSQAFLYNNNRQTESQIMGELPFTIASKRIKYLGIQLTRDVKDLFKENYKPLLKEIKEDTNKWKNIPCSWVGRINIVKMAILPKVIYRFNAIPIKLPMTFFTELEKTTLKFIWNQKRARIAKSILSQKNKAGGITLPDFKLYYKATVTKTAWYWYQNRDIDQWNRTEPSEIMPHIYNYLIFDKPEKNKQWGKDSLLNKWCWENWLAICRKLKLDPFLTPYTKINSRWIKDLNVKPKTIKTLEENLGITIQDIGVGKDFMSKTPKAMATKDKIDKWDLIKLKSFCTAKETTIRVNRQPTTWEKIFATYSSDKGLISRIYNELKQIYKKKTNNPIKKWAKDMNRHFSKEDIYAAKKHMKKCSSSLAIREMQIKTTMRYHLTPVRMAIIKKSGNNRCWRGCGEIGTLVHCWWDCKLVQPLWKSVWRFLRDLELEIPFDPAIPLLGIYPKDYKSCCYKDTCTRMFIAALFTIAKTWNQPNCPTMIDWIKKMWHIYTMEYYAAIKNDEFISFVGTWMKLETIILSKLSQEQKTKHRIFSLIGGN

The first assay concerns the target T1, LINE1 reverse transcriptase (Homo sapiens, UniProt O00370).
T1 construct: expressed in transfected cells; host or cells: HeLa Tet-On 3G (Takara, cat no 631183)
The experiment in a line: Stable artificial-intron Cis LINE1 reporter assay (HeLa Tet-On 3G, Firefly luciferase). The class given is cell-based. To be noted: HeLa L1 artificial-intron reporter cells, doxycycline 500 ng/mL, 72 h, class symbols. How it is done:
Exemplary compounds, were tested for the ability to inhibit LINE1 reverse transcriptase using a stable artificial-intron Cis LINE1 reporter assay. Assay procedures and results are described below.
A stable HeLa Tet-On 3G (Takara, cat no 631183) cell line expressing a bi-directional inducible LINE1 construct was generated as described in Xie, Y. et al. “Cell division promotes efficient retrotransposition in a stable L1 reporter cell line,” Mobile DNA (2013) 4:10. Single cell clones were screened for high Luciferase expression and the highest expression Firefly expressing clone was chosen for compound testing.
Test compounds were serially diluted in DMSO and spotted in 96-well plates. Subsequently, the HeLa Li artificial-intron reporter cells were plated into the compound-containing wells (8,000 cells/well), and the cells were induced for reporter expression with doxycycline (Sigma-Aldrich cat #D9891) at a final concentration of 500 ng/mL. Luminescence was measured 72 h after plating using the Dual-Glo Luciferase Assay System (Promega cat #E2940) following the manufacturer's instructions. The Firefly Luciferase activity was used to report LINE1 activity.
In general terms: Reporter assays use an easily measured gene product as a stand-in for the process of interest.
Compound `C=C[C@]1(CO)O[C@@H](n2cc(F)c(N)nc2=O)[C@@H](O)[C@@H]1O` [Compound 75, 4-amino-1-((2R,3S,4S,5R)-3,4-dihydroxy-5-(hydroxymethyl)-5-vinyltetrahydrofuran-2-yl)-5-fluoropyrimidin-2(1H)-one] came in with an IC50 of 0.1 to 0.25 µM. `Nc1nc(=O)n([C@@H]2O[C@@](CO)(CF)[C@@H](O)[C@@H]2F)cc1F` [Compound 85, 4-amino-5-fluoro-1-[(2R,3S,4R,5R)-3-fluoro-5-(fluoromethyl)-4-hydroxy-5-(hydroxymethyl)oxolan-2-yl] pyrimidin-2-one]: the IC50 lay within 0.05 to 0.1 µM. Still for that read-out and setting: the same measure for `CC(C)[C@]1(CO)O[C@@H](n2ccc(N)nc2=O)C[C@@H]1O` [Compound 55, 4-amino-1-[(2R,4S,5R)-4-hydroxy-5-(hydroxymethyl)-5-isopropyloxolan-2-yl] pyrimidin-2-one]: over 1 µM; for `Cc1cn([C@H]2C[C@H](O)[C@](CO)(CCl)O2)c(=O)nc1N` [Compound 11, 4-amino-1-((2R,4S,5R)-5-(chloromethyl)-4-hydroxy-5-(hydroxymethyl)tetrahydrofuran-2-yl)-5-methylpyrimidin-2(1H)-one]: over 1 µM; for `C#C[C@]1(CO)O[C@@H](n2cc(C)c(=O)[nH]c2=O)C[C@@H]1O` [Compound 38, 1-((2R,4S,5R)-5-ethynyl-4-hydroxy-5-(hydroxymethyl)tetrahydrofuran-2-yl)-5-methylpyrimidine-2,4(1H,3H)-dione]: over 1 µM. The compound `Nc1ccn([C@@H]2O[C@@](CO)(CCl)[C@@H](O)[C@@H]2O)c(=O)n1` [Compound 114, 4-amino-1-((2R,3S,4S,5R)-5-(chloromethyl)-3,4-dihydroxy-5-(hydroxymethyl)tetrahydrofuran-2-yl)pyrimidin-2(1H)-one] came in with a half-inhibitory concentration (IC50) of 0.1 to 0.25 µM.

The compound `Nc1ccn([C@H]2C[C@H](O)[C@](CO)(C(F)F)O2)c(=O)n1` [Compound 110, 4-amino-1-((2R,4S,5R)-5-(difluoromethyl)-4-hydroxy-5-(hydroxymethyl)-tetrahydrofuran-2-yl)pyrimidin-2(1H)-one] showed a half-maximal inhibitory concentration (IC50) of 0.25 to 1 µM. In the case of `C=CCC1(CO)O[C@@H](n2ccc(N)nc2=O)C[C@@H]1O` (stereo partly drawn) [Compound 56, 1-((2R,4S)-5-allyl-4-hydroxy-5-(hydroxymethyl)tetrahydrofuran-2-yl)-4-aminopyrimidin-2(1H)-one], the IC50 is 0.1 to 0.25 µM. `Cc1cn([C@@H]2O[C@@](CO)(N=[N+]=[N-])[C@@H](O)[C@@H]2F)c(=O)[nH]c1=O` [Compound 178, 1-((2R,3S,4R,5R)-5-azido-3-fluoro-4-hydroxy-5-(hydroxymethyl)tetrahydrofuran-2-yl)-5-methylpyrimidine-2,4(1H,3H)-dione] showed a half-inhibitory concentration (IC50) of 0.05 to 0.1 µM.

On to `Nc1ccn([C@@H]2O[C@@](CO)(CF)[C@@H](O)[C@@H]2F)c(=O)n1` [Compound 113, 4-amino-1-((2R,3S,4R,5R)-3-fluoro-5-(fluoromethyl)-4-hydroxy-5-(hydroxymethyl)-tetrahydrofuran-2-yl)pyrimidin-2(1H)-one], for which the IC50 was in the range of 0.05 to 0.1 µM. Take `Nc1nc(=O)n([C@@H]2O[C@@](CO)(CCl)[C@@H](O)[C@@H]2O)cc1F` [Compound 73, 4-amino-1-((2R,3S,4S,5R)-5-(chloromethyl)-3,4-dihydroxy-5-(hydroxymethyl)tetrahydrofuran-2-yl)-5-fluoropyrimidin-2(1H)-one]: the IC50 was at most 0.05 µM. On the same count and under the same terms, under `Nc1nc(=O)n([C@H]2C[C@H](O)[C@](CO)(C(F)(F)F)O2)cc1F` [Compound 66, 4-amino-5-fluoro-1-((2R,4S,5R)-4-hydroxy-5-(hydroxymethyl)-5-(trifluoromethyl)tetrahydrofuran-2-yl)pyrimidin-2(1H)-one] stands 0.25 to 1 µM. For `CC[C@]1(CO)O[C@@H](n2cnc3c(O)nc(N)nc32)C[C@@H]1O` [Compound 115, 2-amino-9-((2R,4S,5R)-5-ethyl-4-hydroxy-5-(hydroxymethyl)tetrahydrofuran-2-yl)-1,9-dihydro-6H-purin-6-one], the IC50 was at most 0.05 µM. Same read-out and setting: the same measure for `Nc1ccn([C@@H]2O[C@@](CO)(CCl)[C@@H](O)[C@H]2F)c(=O)n1` [Compound 31, 4-amino-1-((2R,3R,4R,5R)-5-(chloromethyl)-3-fluoro-4-hydroxy-5-(hydroxymethyl)tetrahydrofuran-2-yl)pyrimidin-2(1H)-one]: at most 0.05 µM.

`C[C@@H]1[C@H](n2ccc(N)nc2=O)O[C@](C)(CO)[C@H]1O` [Compound 19, 4-amino-1-((2R,3S,4S,5R)-4-hydroxy-5-(hydroxymethyl)-3,5-dimethyltetrahydrofuran-2-yl)pyrimidin-2(1H)-one] returned a half-inhibitory concentration (IC50) of 0.25 to 1 µM. The same measure, in the same setting: under `CCCC1(CO)O[C@@H](n2ccc(N)nc2=O)C[C@@H]1O` (stereo partly drawn) [Compound 57, 4-amino-1-((2R,4S,5R)-4-hydroxy-5-(hydroxymethyl)-5-propyltetrahydrofuran-2-yl)pyrimidin-2(1H)-one] stands over 1 µM.

The compound `C#C[C@]1(CO)O[C@@H](n2cc(F)c(N)nc2=O)[C@@H](F)[C@@H]1O` [Compound 112, 4-amino-1-((2R,3S,4R,5R)-5-ethynyl-3-fluoro-4-hydroxy-5-(hydroxymethyl)tetrahydrofuran-2-yl)-5-fluoropyrimidin-2(1H)-one] gave a 50% inhibitory concentration (IC50) of at most 0.05 µM. Same read-out and setting: under `Nc1nc(=O)n([C@H]2C[C@H](O)[C@](CO)(CBr)O2)cc1F` [Compound 88, 4-amino-1-((2R,4S,5R)-5-(bromomethyl)-4-hydroxy-5-(hydroxymethyl)tetrahydrofuran-2-yl)-5-fluoropyrimidin-2(1H)-one] stands at most 0.05 µM. The same measure, in the same setting: under `C=C[C@]1(CO)O[C@@H](n2cnc3c(N)nc(F)nc32)[C@@H](F)[C@@H]1O` [Compound 80, (2R,3R,4S,5R)-5-(6-amino-2-fluoropurin-9-yl)-2-ethenyl-4-fluoro-2-(hydroxymethyl)oxolan-3-ol] stands 0.1 to 0.25 µM.

`C=C[C@]1(CO)O[C@@H](n2cc(F)c(N)nc2=O)C[C@@H]1O` [Compound 74, 4-amino-5-fluoro-1-((2R,4S,5R)-4-hydroxy-5-(hydroxymethyl)-5-vinyltetrahydrofuran-2-yl)pyrimidin-2(1H)-one]: the IC50 is at most 0.05 µM.

Consider `Nc1nc(=O)n([C@H]2C[C@H](O)[C@](CO)(C3CC3)O2)cc1F` [Compound 120, 4-amino-1-[(2R,4S,5R)-5-cyclopropyl-4-hydroxy-5-(hydroxymethyl)oxolan-2-yl]-5-fluoropyrimidin-2-one], for which the IC50 was in the range of 0.25 to 1 µM. For the compound `C#C[C@]1(CO)O[C@@H](n2ccc(N)nc2=O)C[C@@H]1O` [Compound 41, 4-amino-1-((2R,4S,5R)-5-ethynyl-4-hydroxy-5-(hydroxymethyl)tetrahydrofuran-2-yl)pyrimidin-2(1H)-one], the IC50 is at most 0.05 µM.

Staying with this assay, now noted: HeLa L1 artificial-intron reporter cells, doxycycline 500 ng/mL, 72 h, numeric bounds.
`N#C[C@]1(CO)O[C@@H](n2cc(F)c(N)nc2=O)[C@@H](F)[C@@H]1O` [Compound 166]: the IC50 was over 30 µM. Still for that read-out and setting: under `CO[C@H]1C[C@H](n2ccc(N)nc2=O)O[C@@]1(CO)CCl` [Compound 54, 4-amino-1-[(2R,4S,5R)-5-(chloromethyl)-5-(hydroxymethyl)-4-methoxyoxolan-2-yl]-3,4-dihydropyrimidin-2-one] stands over 30 µM; under `NC[C@]1(CO)O[C@@H](n2cc(F)c(N)nc2=O)[C@@H](F)[C@@H]1O` [Compound 139, 4-amino-1-[(2R,3S,4R,5R)-5-(aminomethyl)-3-fluoro-4-hydroxy-5-(hydroxymethyl)oxolan-2-yl]-5-fluoropyrimidin-2-one], over 30 µM.

The values above are taken from US20230295212A1 (ROME Therapeutics, Inc., priority 2022, published 2023).
